Laboratory results reported in patent US20150374623A1, “DEAMORPHIZATION OF SPRAY-DRIED FORMULATIONS VIA SPRAY-BLENDING” (NOVARTIS AG, priority 2013, published 2015).
Values after ≈ are worked out from the molar mass of the structure shown. Structures can show the parent of a compound that is named as a salt. Where two headings read alike, the source gives them in different places.

Tests used:
[1] = Solubility of indacaterol maleate in water and in maleate buffer; assay type: physicochemical
Protocol: In Lot II, the concentration of indacaterol in Feedline A was 18% w/w and the concentration in the spray-blended bulk powder was just 4.1% w/w, as the remaining spray dried particles from Feedlines B and C contained no API.
Lot IV is formulated like Lot II except 20 mM sodium maleate (pH 5.5) was added to Feedline A. Sodium maleate was added to decrease the indacaterol solubility in water to about, 0.01 mg/ml (common ion effect). In this case, spray-blending reduced the dissolved indacaterol in the feedstock from about, 8.0% to 0.1%.
Estimated % Dissolved was calculated based on the feedstock compositions according to equation 1. The solubility of indacaterol in water is 0.2 mg/ml, and 0.01 mg/ml in 20 mM maleate buffer. The decreased solubility in maleate buffer is the result of the shift in the equilibrium towards precipitation of indacaterol maleate which occurs as a result of the addition of a common ion. The impact of spray-blending on the dissolved fraction is clearly evident by comparing Lots I and VI. In the spray-blended Lot I, the total drug loading is 1.4%, yet the dissolved fraction is just 4.9%. In contrast, for the single feedstock Lot VI, the drug content is actually higher (2%), yet the dissolved fraction is nearly 15%.

β2-adrenoceptor = β2-adrenoceptor (Homo sapiens, UniProt P07550); conditions: cited from earlier work
Chain of β2-adrenoceptor (P07550 whole entry, species assumed): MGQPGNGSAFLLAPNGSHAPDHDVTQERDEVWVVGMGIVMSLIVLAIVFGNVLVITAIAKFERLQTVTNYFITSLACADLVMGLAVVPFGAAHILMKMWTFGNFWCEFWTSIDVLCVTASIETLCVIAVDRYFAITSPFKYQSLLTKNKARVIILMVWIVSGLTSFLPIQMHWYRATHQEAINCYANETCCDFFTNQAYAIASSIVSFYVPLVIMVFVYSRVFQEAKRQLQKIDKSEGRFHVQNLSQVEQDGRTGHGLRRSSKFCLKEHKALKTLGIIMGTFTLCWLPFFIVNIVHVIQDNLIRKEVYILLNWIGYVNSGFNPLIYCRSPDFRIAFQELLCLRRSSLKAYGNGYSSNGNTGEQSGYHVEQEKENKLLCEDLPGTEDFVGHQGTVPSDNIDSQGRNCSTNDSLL

Structure (SMILES) | solubility ([1]; water, read-out: solubility in water) [µg/mL] | solubility in 20 mM maleate buffer ([1]; 20 mM sodium maleate (pH 5.5), common ion effect) [µg/mL] | solubility ([1]; 20 mM sodium maleate buffer, pH 5.5, aqueous buffer, 20 mM sodium maleate (pH 5.5), common ion effect, read-out: solubility in 20 mM maleate buffer) [µg/mL] | duration of action (β2-adrenoceptor) | onset of action (β2-adrenoceptor)
CCc1cc2c(cc1CC)CC(NC[C@H](O)c1ccc(O)c3[nH]c(=O)ccc13)C2 [indacaterol maleate, (R)-5-[2-(5,6-diethyl-indan-2-ylamino)-1-hydroxyethyl]-8-hydroxy-1H-quinolin-2-one] | 200 | – | – | – | –
CCc1cc2c(cc1CC)CC(NC[C@H](O)c1ccc(O)c3[nH]c(=O)ccc13)C2 [indacaterol, (R)-5-[2-(5,6-diethyl-indan-2-ylamino)-1-hydroxyethyl]-8-hydroxy-1H-quinolin-2-one] | – | 10 (≈ 25.5 µM) | ~10 (≈ 25.5 µM) | over 24 hours | about 10 minutes
